Structures are written as SMILES. pIC50: −log10 of the molar value. Counter-ions that a name gives are not always drawn.

The assay deals with T1, IgE-Tb / soluble IgE receptor FcεRIα with a Y131A mutation (Homo sapiens, UniProt P01854, N146Q/N252Q).
T1 construct: fused on or other part: Terbium chelate (LanthaScreen amine-reactive) on IgE-Fc; Alexa Fluor 488 hydrazide on the oxidised glycans of sFcεRIα; Both are labels and no part of the key
T1 sequence (P01854 104-427 N146Q/N252Q): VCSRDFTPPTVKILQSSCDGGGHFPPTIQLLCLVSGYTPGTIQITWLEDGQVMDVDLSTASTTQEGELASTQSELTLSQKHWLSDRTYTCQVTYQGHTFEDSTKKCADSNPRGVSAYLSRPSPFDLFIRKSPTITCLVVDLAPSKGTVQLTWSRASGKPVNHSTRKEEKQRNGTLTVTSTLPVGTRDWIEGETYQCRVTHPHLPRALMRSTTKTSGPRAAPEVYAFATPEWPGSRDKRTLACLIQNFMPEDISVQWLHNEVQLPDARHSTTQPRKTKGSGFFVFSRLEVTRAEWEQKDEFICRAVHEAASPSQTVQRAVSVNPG
T1 sequence (P12319 26-201 Y156A partner): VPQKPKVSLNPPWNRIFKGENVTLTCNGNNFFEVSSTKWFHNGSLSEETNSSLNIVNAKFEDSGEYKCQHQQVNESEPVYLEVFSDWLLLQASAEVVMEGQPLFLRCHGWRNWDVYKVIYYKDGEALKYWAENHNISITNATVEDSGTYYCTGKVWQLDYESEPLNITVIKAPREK
The assay can be described thus: in vitro FRET assay: binding of IgE-Tb to receptor FcεRIα-Y131A-AF488 and its inhibition by compounds. Conditions: 5 nM IgE-Tb, 25 nM FcεRIα-Y131A-AF488, 2 hours at room temperature; read-out: FRET IC50 range.
As for `CC(C)(F)CNS(=O)(=O)c1c2c(cc3cnc(C4CC4)cc13)C[C@@H](Nc1cnc(C(=O)O)c3ccccc13)C2` [Example 138, lithium; 4-[[(7R)-3-cyclopropyl-5-[(2-fluoro-2-methyl-propyl)sulfamoyl]-7,8-dihydro-6H-cyclopenta[g]isoquinolin-7-yl]amino]isoquinoline-1-carboxylate], the pIC50 was 7.00 to 7.30.

On to `CC(C)(F)CNS(=O)(=O)c1c2c(cc3nnc(C4CC4)cc13)CC(NC(=O)OC(C)(C)C)C2` (stereo not drawn) [Example 65, tert-butyl N-[3-cyclopropyl-5-[(2-fluoro-2-methylpropyl)sulfamoyl]-7,8-dihydro-6H-cyclopenta[g]cinnolin-7-yl]carbamate], for which the pIC50 was 5.70 to 7.00.

Take `CC(C)(F)CNS(=O)(=O)c1c2c(cc3cnc(C4CC4)cc13)CC(Nc1cncc3nccn13)C2` (stereo not drawn) [Example 109, 3-cyclopropyl-N-(2-fluoro-2-methylpropyl)-7-(imidazo[1,2-a]pyrazin-5-ylamino)-7,8-dihydro-6H-cyclopenta[g]isoquinoline-5-sulfonamide]: the pIC50 is 7.30 to 8.00.

On to `CC(C)CNS(=O)(=O)c1c2c(cc3cnc(C4CC4)cc13)CCC2` [Example 69, 3-cyclopropyl-N-isobutyl-7,8-dihydro-6H-cyclopenta[g]isoquinoline-5-sulfonamide], for which the pIC50 is 7.00 to 7.30.

Consider `COc1nc(C2CC2)cc2c(S(=O)(=O)NCC(C)(C)F)c3c(cc12)CC(Nc1ccc(C2(O)COC2)nc1)C3` (stereo not drawn) [Example 26, 3-cyclopropyl-N-(2-fluoro-2-methylpropyl)-7-[[6-(3-hydroxyoxetan-3-yl)pyridin-3-yl]amino]-1-methoxy-7,8-dihydro-6H-cyclopenta[g]isoquinoline-5-sulfonamide], for which the pIC50 is 5.70 to 7.00.

As to `Cn1cc(C(=O)N[C@@H]2Cc3cc4cnc(C5CC5)cc4c(S(=O)(=O)NCC(C)(C)F)c3C2)c2ccccc21` [Example 132, N-[(7R)-3-cyclopropyl-5-[(2-fluoro-2-methylpropyl)sulfamoyl]-7,8-dihydro-6H-cyclopenta[g]isoquinolin-7-yl]-1-methylindole-3-carboxamide], the pIC50 was 7.30 to 8.00.

`Cn1ncc2c(NC3Cc4cc5cnc(C6CC6)cc5c(S(=O)(=O)NCC(C)(C)F)c4C3)cncc21` (stereo not drawn) [Example 84, 3-cyclopropyl-N-(2-fluoro-2-methylpropyl)-7-[(1-methylpyrazolo[3,4-c]pyridin-4-yl)amino]-7,8-dihydro-6H-cyclopenta[g]isoquinoline-5-sulfonamide]: the pIC50 was 7.30 to 8.00.

As for `CC(C)(F)CNS(=O)(=O)c1c2c(cc3cnc(C4CC4)cc13)C[C@@H](NC1=CC(=O)COC1)C2` [Example 127, (7R)-3-cyclopropyl-N-(2-fluoro-2-methylpropyl)-7-[(5-oxo-2H-pyran-3-yl)amino]-7,8-dihydro-6H-cyclopenta[g]isoquinoline-5-sulfonamide], the negative-log IC50 (pIC50) was 5.70 to 7.00.

With `CC(C)(C)CNC(=O)C1Cc2cc3nnc(C4CC4)cc3c(S(=O)(=O)NCC(C)(C)F)c2C1` (stereo not drawn) [Example 113, 3-cyclopropyl-N-(2,2-dimethylpropyl)-5-[(2-fluoro-2-methylpropyl)sulfamoyl]-7,8-dihydro-6H-cyclopenta[g]cinnoline-7-carboxamide], the pIC50 is 5.70 to 7.00.

Turning to `CC(C)(F)CNS(=O)(=O)c1c2c(cc3cnc(C4CC4)cc13)CN(Cc1ccn[nH]1)C2` [Example 102, 7-cyclopropyl-N-(2-fluoro-2-methylpropyl)-2-(1H-pyrazol-5-ylmethyl)-1,3-dihydropyrrolo[3,4-g]isoquinoline-9-sulfonamide], the pIC50 is 5.70 to 7.00.

Consider `CC(C)CNS(=O)(=O)c1c2c(cc3cnc(C4CC4)cc13)CC(Nc1ccnnc1)C2` (stereo not drawn) [Example 103, 3-cyclopropyl-N-isobutyl-7-(pyridazin-4-ylamino)-7,8-dihydro-6H-cyclopenta[g]isoquinoline-5-sulfonamide; formic acid], for which the negative logarithm of the IC50 (pIC50) was 7.30 to 8.00.

On to `CNS(=O)(=O)c1ccc(N[C@@H]2Cc3cc4cnc(C5CC5)cc4c(S(=O)(=O)NCC(C)(C)F)c3C2)cn1` [Example 93, (7R)-3-cyclopropyl-N-(2-fluoro-2-methylpropyl)-7-[[6-(methylsulfamoyl)pyridin-3-yl]amino]-7,8-dihydro-6H-cyclopenta[g]isoquinoline-5-sulfonamide], for which the pIC50 was 7.30 to 8.00.

Regarding `Cn1ccc(NC2Cc3cc4cnc(C5CC5)cc4c(S(=O)(=O)NCC(C)(C)F)c3C2)cc1=O` (stereo not drawn) [Example 96, 3-cyclopropyl-N-(2-fluoro-2-methyl-propyl)-7-[(1-methyl-2-oxo-4-pyridyl)amino]-7,8-dihydro-6H-cyclopenta[g]isoquinoline-5-sulfonamide; formate salt], the pIC50 was 7.30 to 8.00.

For the compound `O=S(=O)(NC1CC(F)(F)C1)c1c2c(cc3cnc(C4CC4)cc13)CC(Nc1ccc(C3(O)COC3)nc1)C2` (stereo not drawn) [Example 74, 3-cyclopropyl-N-(3,3-difluorocyclobutyl)-7-[[6-(3-hydroxyoxetan-3-yl)pyridin-3-yl]amino]-7,8-dihydro-6H-cyclopenta[g]isoquinoline-5-sulfonamide], the pIC50 was 7.30 to 8.00.

Regarding `Cc1nc(C2CC2)cc2c(S(=O)(=O)NCC(C)C)c3c(cc12)CCC3` [Example 67, 3-cyclopropyl-1-methyl-N-(2-methylpropyl)-7,8-dihydro-6H-cyclopenta[g]isoquinoline-5-sulfonamide], the pIC50 was 5.70 to 7.00.

Regarding `CC(C)(F)CNS(=O)(=O)c1c2c(cc3cnc(C4CC4)cc13)C[C@@H](NC(=O)c1c[nH]c3ccccc13)C2` [Example 130, N-[(7R)-3-cyclopropyl-5-[(2-fluoro-2-methylpropyl)sulfamoyl]-7,8-dihydro-6H-cyclopenta[g]isoquinolin-7-yl]-1H-indole-3-carboxamide], the pIC50 is 7.30 to 8.00.

In the case of `Cc1ncsc1C(=O)N[C@@H]1Cc2cc3cnc(C4CC4)cc3c(S(=O)(=O)NCC(C)(C)F)c2C1` [Example 134, N-[(7R)-3-cyclopropyl-5-[(2-fluoro-2-methylpropyl)sulfamoyl]-7,8-dihydro-6H-cyclopenta[g]isoquinolin-7-yl]-4-methyl-1,3-thiazole-5-carboxamide], the pIC50 is 5.70 to 7.00.

Turning to `CC(C)CNS(=O)(=O)c1c2c(cc3cnc(C4CC4)cc13)CC1(c3ncc(-c4cccnc4)[nH]3)CC21` (stereo not drawn) [Example 2, 13-cyclopropyl-˜{N}-(2-methylpropyl)-6-(5-pyridin-3-yl-1˜{H}-imidazol-2-yl)-12-azatetracyclo[8.4.0.0^{3,8}.0^{4,6}]tetradeca-1,3 (8),9,11,13-pentaene-2-sulfonamide], the pIC50 is 7.30 to 8.00.

For the origin of these results see patent US12577228B2, “Dihydrocyclopenta-isoquinoline-sulfonamide derivatives compounds” (UCB Biopharma SRL, priority 2019, dated 2026).
